What all share (format): cell-based
The subject of assay [1] is TNF-α. The assay is described as follows: Induction of TNF-α using fresh human whole blood (WB). The following applies: three donors, overnight incubation, response as % of 2 μM resiquimod control, read-out: mean pEC50 for TNF-α (converted). The protocol: (§1) Assay for the Induction of Interferon-α and TNF-α Using Fresh Human Whole Blood (WB)
(§2) Compounds were prepared at 100× required concentration in DMSO in flat-bottom microtitre plates at a volume of 1.5 μL. Columns 1-10 contained a 1 in 4 serial dilution of the test compound. Included on each plate was a serial dilution of the TLR7/8 agonist resiquimod as a standard and Column 11 contained 1.5 μl of 200 μM resiquimod (giving a 2 μM final concentration, used to define the approximate maximal response to resiquimod). Each compound was assayed in duplicate for each donor.
(§3) Blood samples from three human donors were collected into sodium heparin (10 U/ml). 150 μl of whole Blood was dispensed into Col 1 to 11 of assay plates containing 1.5 μl of test compound or standard in DMSO. Plates were placed in an incubator overnight (37° C., 95% air, 5% CO2). Following the overnight incubation, plates were removed from the incubator & mixed on an orbital shaker for approximately 1 minute. 100 μl of 0.9% saline was added to each well and the plates mixed again on an orbital shaker. Plates were then centrifuged (2500 rpm, 10 mins), after which a sample of plasma was removed using a Biomek FX and assayed for both IFN-α and TNF-α using the MSD (Mesoscale Discovery) electrochemiluminescence assay platform. The IFN-α assay was carried out similarly to that described above. The TNF-α assay was carried out as per kit instructions (Cat No K111BHB).
(§4) Cytokine released was expressed as a percentage of the 2 μM resiquimod control (column 11). This percentage was plotted against compound concentration and the pEC50 for the response determined by non-linear least squares curve fitting. For the IFN-α responses, generally a 4 parameter logistic model was selected. For the TNF-α responses where a clear maximum response was obtained (i.e. a well defined plateau in the response was observed) then a 4 parameter model was generally used. If the upper asymptote of the curve wasn't well defined then the curve fitting was generally constrained to a maximal response of 100% (i.e. to the response to 2 μM resiquimod) or to the response of the highest concentration tested if this was greater than the resiquimod response. Some curves were bell shaped for one or both cytokines and the cytokine data on the down slope of the bell shaped response (i.e. concentrations above those giving the maximal response) were generally excluded from the fit, usually with the exception of the concentration immediately above the peak response. Curve fitting thus concentrated on the up slope of the dose response curve.

The test system of assay [2] is IFN-α. The assay is described as follows: Induction of Interferon-α using fresh human peripheral blood mononuclear cells (PBMCs). The following applies: PBMC, three donors, 24 hr incubation, response as % of 2 μM resiquimod control, read-out: mean pEC50 for IFN-α (converted). The protocol:
(§5) Assay for the Induction of Interferon-α and TNF-α Using Fresh Human Peripheral Blood Mononuclear Cells (PBMCs)
(§6) Compounds were dispensed by at 100× the required concentration in DMSO (1 uL/well in a flat bottom 96-well cell culture plate). Each compound was assayed in duplicate for each donor. Each plate contained a dilution series of the TLR7/8 agonist resiquimod as standard and Column 11 contained 1 μL of 200 μM resiquimod (giving a 2 μM final concentration, used to define the approximate maximal response to resiquimod).
(§7) Blood samples from three human donors were collected into sodium heparin (10 U/ml). 25 mL volumes of whole blood were overlaid onto 15 mL Histopaque in Leucosep tubes which were centrifuged at 400 g for 30 min and the band at the plasma/histopaque interface carefully removed into a sterile 50 mL conical tube. The volume in the tube was made up to 50 mL with sterile DPBS (Dulbecco's phosphate buffered saline, —CaCl2/MgCl2) and centrifuged at 300 g for 10 min. The cell pellet was resuspended in 20 mL of media (RPMI 1640 (Low endotoxin) supplemented with 10% v/v foetal calf serum (FCS, low endotoxin) 100 U/mL penicillin G, 100 μg/mL streptomycin, 10 mM L-glutamine and 1× non-essential amino acids), and the cells counted using the Nucleoview 3000 (Chemometec, Via-1 Cassette). The PBMCs concentration was adjusted to give a final concentration of 2×10^6/mL and 100 uL of this cells suspension was added to wells containing 1 μL of diluted test compound.
(§8) The cell preparations were incubated for 24 hr (37° C., 95% air, 5% CO2) after which a sample of the supernatant was removed using the Biomek FX and assayed for both IFN-α and TNF-α using the MSD (Mesoscale Discovery) electrochemiluminescence assay platform. The IFN-α assay was carried out similarly to that described above. The TNF-α assay was carried out as per kit instructions (Cat No K111BHB).
as §4, with “responses” for “responses,”

The subject of assay [3] is IFN-α. The assay is described as follows: Induction of Interferon-α using fresh human whole blood (WB). The following applies: three donors, overnight incubation, response as % of 2 μM resiquimod control, read-out: mean pEC50 for IFN-α (converted). The protocol: as §1, §2, §3, §4
Assay [4] relates to TNF-α. The assay is described as follows: Induction of TNF-α using fresh human peripheral blood mononuclear cells (PBMCs). The following applies: PBMC, three donors, 24 hr incubation, response as % of 2 μM resiquimod control, read-out: mean pEC50 for TNF-α (converted). The protocol: as §5, §6, §7, §8
as §4, with “responses” for “responses,”

The structures appear in SMILES notation. Where a name gives a salt, the structure may show the parent alone.

As for `Cc1nc(N)c2[nH]c(C)c(CCCCCN(CCO)CCO)c2n1` [Example 3, 2,2′-((5-(4-Amino-2,6-dimethyl-5H-pyrrolo[3,2-d]pyrimidin-7-yl)pentyl)azanediyl)diethanol formate], the EC50 with TNF-α [1] is no less than 50.1 µM; with IFN-α [2], 0.501 to 3.98 µM; in the assay with IFN-α [3], no less than 2 µM; with TNF-α [4], no less than 50.1 µM.

As for `Cc1nc(N)c2[nH]c(C)c(CCCCCCNCCO)c2n1` [Example 7, 2-((6-(4-Amino-2,6-dimethyl-5H-pyrrolo[3,2-d]pyrimidin-7-yl)hexyl)amino)ethanol], the EC50 in the assay on TNF-α [1] was no less than 50.1 µM; in the assay on IFN-α [2] it was 0.501 to 3.98 µM; with IFN-α [3], no less than 2 µM; in the assay on TNF-α [4], no less than 50.1 µM.

For the compound `Cc1nc(N)c2[nH]c(C)c(CCCCCCN3CCCCC3)c2n1` [Example 1, 2,6-Dimethyl-7-(6-(piperidin-1-yl)hexyl)-5H-pyrrolo[3,2-d]pyrimidin-4-amine], the EC50 with TNF-α [1] is no less than 50.1 µM; in the assay with IFN-α [2], 0.501 to 3.98 µM; in the assay with IFN-α [3], no less than 2 µM; with TNF-α [4] it was no less than 50.1 µM.

On to `Cc1nc(N)c2[nH]c(C)c(CCCCCCN(C)C)c2n1` [Example 10, 7-(6-(Dimethylamino)hexyl)-2,6-dimethyl-5H-pyrrolo[3,2-]pyrimidin-4-amine], for which the results for the EC50 with TNF-α [1] and with IFN-α [3] were no less than 50.1 µM and no less than 2 µM, respectively.

Regarding `Cc1nc(N)c2[nH]c(C)c(CCCCCCN3C[C@H](O)C[C@H](O)C3)c2n1` [Example 8, (3R,5S)-1-(6-(4-amino-2,6-dimethyl-5H-pyrrolo[3,2-d]pyrimidin-7-yl)hexyl)piperidine-3,5-diol], the EC50 is no less than 50.1 µM in the assay on TNF-α [1], 0.501 to 3.98 µM in the assay with IFN-α [2], no less than 2 µM with IFN-α [3] and no less than 50.1 µM with TNF-α [4].

Take `Cc1nc(N)c2[nH]c(C)c(CCCCCCN3C[C@H](O)C[C@@H](O)C3)c2n1` [Example 9, (3R,5R)-1-(6-(4-Amino-2,6-dimethyl-5H-pyrrolo[3,2-d]pyrimidin-7-yl)hexyl)piperidine-3,5-diol]: the EC50 in the assay with TNF-α [1] is no less than 50.1 µM; in the assay with IFN-α [2] it was 0.501 to 3.98 µM; with IFN-α [3], no less than 2 µM; with TNF-α [4] it was no less than 50.1 µM.

In the case of `Cc1nc(N)c2[nH]c(C)c(CCCCCCN(CCO)CCO)c2n1` [Example 4, 2,2′-((6-(4-Amino-2,6-dimethyl-5H-pyrrolo[3,2-d]pyrimidin-7-yl)hexyl)azanediyl)diethanol formate], the EC50 with TNF-α [1] is no less than 50.1 µM; in the assay with IFN-α [2] it was 0.501 to 3.98 µM; in the assay on IFN-α [3], no less than 2 µM; with TNF-α [4], no less than 50.1 µM.

In the case of `COCCN(CCCCCCc1c(C)[nH]c2c(N)nc(C)nc12)CCOC` [Example 6, 7-(6-(bis(2-Methoxyethyl)amino)hexyl)-2,6-dimethyl-5H-pyrrolo[3,2-d]pyrimidin-4-amine], the EC50 in the assay on TNF-α [1] is no less than 50.1 µM; in the assay with IFN-α [2] it was 0.501 to 3.98 µM; in the assay with IFN-α [3], no less than 2 µM; in the assay with TNF-α [4], no less than 50.1 µM.

As for `COCCN(CCO)CCCCCCc1c(C)[nH]c2c(N)nc(C)nc12` [Example 5, 2-((6-(4-Amino-2,6-dimethyl-5H-pyrrolo[3,2-d]pyrimidin-7-yl)hexyl)(2-methoxyethyl)amino)ethanol], the EC50 with TNF-α [1] is no less than 50.1 µM; with IFN-α [2] it was 0.501 to 3.98 µM; in the assay with IFN-α [3], no less than 2 µM; in the assay on TNF-α [4] it was no less than 50.1 µM.

For the compound `Cc1nc(N)c2[nH]c(C)c(CCCCCN3CCCC3)c2n1` [Example 2, 2,6-Dimethyl-7-(5-(pyrrolidin-1-yl)pentyl)-5H-pyrrolo[3,2-d]pyrimidin-4-amine maleate], the EC50 with TNF-α [1] is no less than 50.1 µM; in the assay on IFN-α [2], 0.501 to 3.98 µM; in the assay on IFN-α [3], no less than 2 µM; with TNF-α [4] it was no less than 50.1 µM.
